Measurements as given in the supplement of paper PMC10883282.

What was measured:
Experiment in all cases: relative viability vs DMSO control (72 h) (fraction); higher = more viable cells
MES-SA = system: MES-SA
Summary of the method: (§1)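 Sarcoma cell lines were seeded in 384-well plates at densities chosen for 80–90% confluence, then 24 h later given 2.5 µl of serially diluted compound drawn from source plates spanning 10 mM to 0.0002 mM. They were held 72 h at 37 °C, 5% CO2, with 0.1% DMSO vehicle and a 5 µM positive control included. Relative viability was read with ATPLite as percent growth and averaged over up to triplicate wells. Rescaling placed full at 1 and none at 0.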

VA-ES-BJ = system: VA-ES-BJ
Summary of the method: as §1

A204 = system: A204
Summary of the method: as §1

SW982 = system: SW982
Summary of the method: as §1

SK-ES-1 = system: SK-ES-1
Summary of the method: as §1

C[C@H]1Oc2cc(cnc2N)-c2c(nn(C)c2C#N)CN(C)C(=O)c2ccc(F)cc21 [Lorlatinib]
relative viability
Settings | A204 | MES-SA | SK-ES-1 | SW982 | VA-ES-BJ
0.00017 µM | 1.08 | 0.955 | 1.02 | 1.012 | 1.056
0.00051 µM | 1.11 | 0.987 | 1.03 | 1.04 | 1.08
0.00152 µM | 1.1 | 0.943 | 1.06 | 1.02 | 1.05
0.00457 µM | 1.13 | 0.929 | 1.05 | 1.04 | 1.03
0.01372 µM | 1.1 | 0.922 | 1.01 | 1.03 | 1.02
0.04115 µM | 1.07 | 0.923 | 1.01 | 1.03 | 0.989
0.1235 µM | 1.05 | 0.911 | 1.023 | 0.895 | 0.989
0.3704 µM | 1.05 | 0.919 | 1.03 | 0.826 | 0.956
1.111 µM | 1.01 | 0.897 | 1 | 0.762 | 0.966
3.333 µM | 0.981 | 0.892 | 0.89 | 0.768 | 0.955
10 µM | 0.988 | 0.879 | 0.571 | 0.64 | 0.87

Cc1c(F)cc(C(=O)NC2CC2)cc1-c1ccc(C(=O)NCC(C)(C)C)cn1 [Losmapimod]
relative viability
Settings | A204 | MES-SA | SK-ES-1 | SW982 | VA-ES-BJ
0.00017 µM | 1.06 | 0.997 | 1.08 | 1.059 | 1.11
0.00051 µM | 1.07 | 0.9963 | 1.12 | 1.07 | 1.1
0.00152 µM | 1.07 | 0.967 | 1.09 | 1.09 | 1.07
0.00457 µM | 1.06 | 0.951 | 1.11 | 1.07 | 1.07
0.01372 µM | 1.1 | 0.96 | 1.07 | 1.07 | 1.07
0.04115 µM | 1.07 | 0.935 | 1.02 | 1.07 | 1.06
0.1235 µM | 1.07 | 0.9396 | 1.01 | 1.06 | 0.988
0.3704 µM | 1.03 | 0.928 | 0.993 | 1.07 | 1.03
1.111 µM | 1.03 | 0.8915 | 0.968 | 1.06 | 1.03
3.333 µM | 0.992 | 0.866 | 0.915 | 1.02 | 1.02
10 µM | 0.901 | 0.879 | 0.879 | 1 | 1

CO[C@@H]1[C@H](N(C)C(=O)c2ccccc2)C[C@H]2O[C@]1(C)n1c3ccccc3c3c4c(c5c6ccccc6n2c5c31)C(=O)NC4 [Midostaurin]
relative viability
Settings | A204 | MES-SA | SK-ES-1 | SW982 | VA-ES-BJ
0.00017 µM | 1.04 | 0.87 | 0.994 | 1 | 0.978
0.00051 µM | 1.03 | 0.8799 | 0.969 | 0.978 | 0.943
0.00152 µM | 1.02 | 0.889 | 0.931 | 0.979 | 0.974
0.00457 µM | 0.997 | 0.885 | 0.985 | 0.931 | 0.978
0.01372 µM | 1.01 | 0.891 | 0.987 | 0.93 | 0.958
0.04115 µM | 0.961 | 0.866 | 0.966 | 0.939 | 0.945
0.1235 µM | 0.792 | 0.818 | 0.898 | 0.821 | 0.917
0.3704 µM | 0.485 | 0.408 | 0.266 | 0.375 | 0.668
1.111 µM | 0.263 | 0.251 | 0.0642 | 0.19 | 0.372
3.333 µM | 0.192 | 0.139 | 0.0543 | 0.124 | 0.269
10 µM | 0.157 | 0.0904 | 0.0611 | 0.122 | 0.181

Cc1ccc(C(=O)OCc2ccc([C@@H](CN)C(=O)Nc3ccc4cnccc4c3)cc2)c(C)c1 [Netarsudil]
relative viability
Settings | A204 | MES-SA | SK-ES-1 | SW982 | VA-ES-BJ
0.00017 µM | 1.03 | 0.89 | 1.01 | 1.06 | 1.02
0.00051 µM | 1.05 | 0.901 | 0.999 | 1.03 | 1
0.00152 µM | 1.04 | 0.892 | 1.04 | 1.03 | 0.998
0.00457 µM | 1.03 | 0.905 | 1.04 | 1.04 | 1.02
0.01372 µM | 1.01 | 0.921 | 1.03 | 1.05 | 1.01
0.04115 µM | 0.963 | 0.884 | 1.04 | 1.032 | 0.991
0.1235 µM | 0.841 | 0.85 | 1.03 | 0.98 | 0.99
0.3704 µM | 0.82 | 0.775 | 1.04 | 0.897 | 0.998
1.111 µM | 0.703 | 0.672 | 1.04 | 0.841 | 1.03
3.333 µM | 0.609 | 0.402 | 0.761 | 0.749 | 1.03
10 µM | 0.00737 | 0.00233 | 0.0124 | 0.0152 | 0.659

Cc1cn(-c2cc(NC(=O)c3ccc(C)c(Nc4nccc(-c5cccnc5)n4)c3)cc(C(F)(F)F)c2)cn1 [Nilotinib]
relative viability
Settings | A204 | MES-SA | SK-ES-1 | SW982 | VA-ES-BJ
0.00017 µM | 1 | 0.882 | 0.966 | 0.977 | 1.05
0.00051 µM | 0.979 | 0.867 | 0.958 | 0.983 | 1.04
0.00152 µM | 1.03 | 0.874 | 0.951 | 0.957 | 1.04
0.00457 µM | 1.04 | 0.875 | 0.919 | 0.974 | 1.05
0.01372 µM | 1.05 | 0.88 | 0.954 | 0.988 | 1.05
0.04115 µM | 1.074 | 0.94 | 0.975 | 0.994 | 1.06
0.1235 µM | 1.01 | 0.938 | 0.997 | 0.987 | 1.08
0.3704 µM | 0.662 | 0.93 | 0.908 | 0.998 | 1.1
1.111 µM | 0.421 | 0.891 | 0.788 | 0.973 | 1.1
3.333 µM | 0.34 | 0.659 | 0.55 | 0.902 | 0.989
10 µM | 0.345 | 0.594 | 0.484 | 0.727 | 0.679
